Consider seven molecules from patent US20190124918A1, “BIOFILM FORMATION INHIBITOR AND BIOFILM FORMATION INHIBITING COMPOSITION” (KAO CORPORATION, priority 2016, published 2019).

Where only a bound is given, the exact number is not on record here.

Test [1] concerns Pseudomonas PAO1 strain (ATCC 15692). The test is described as follows: Amount of biofilm formed (crystal violet, OD570), 96-well microplate culture. In kind it is cell-based. On the procedure: Pseudomonas PAO1 strain (ATCC 15692) was subjected to stationary culture performed in LB culture medium (Lysogeny Broth; manufactured by Becton Dickinson) at 37° C. for 24 hours. The turbidity (OD600) of the culture solution was measured. The culture solution was diluted with Mueller Hinton Broth (BBL made) to prepare a suspension (15 mL) having a turbidity (OD600) of 1/10^6. […]
(§1) Growth inhibition rates relative to the control (ethanol alone) were calculated based on OD600 values measured and in accordance with the following expression. In addition, biofilm (BF) formation inhibition rates relative to the control (ethanol alone) were calculated based on OD570 values and in accordance with the following expression:
BF inhibition (%)={1−(compound addition group OD570/control group OD570)}×100
(§2) As a control, an ethanol solvent alone was used (EtOH control). The concentrations of test compounds in the ethanol solution were as follows: test compound 1: 20 mM, test compounds 2 to 7: 100 mM. To each of the wells of a 96-well microplate (351172; manufactured by Japan Becton Dickinson), 6 μL of DMSO (Tokyo Kasei) and an ethanol solution of each test compound (1 to 8 μL) were added and then the microplates were allowed to stand still at room temperature for 5 hours to evaporate ethanol. A suspension solution of a Pseudomonas microbe prepared in the same procedure as in Test Example 1, 1) was added in an amount of 145 μL per well and culture was initiated.
(§3) After the 96-well microplate was subjected to stationary culture at 30° C. for 24 hours, turbidity (OD600) was measured to check growth. Subsequently, individual wells were stained with 0.1% crystal violet and thoroughly washed twice with physiological saline. To each well, 200 μL of ethanol was added and the absorbance (OD570) was measured to obtain the amount of the biofilm formed. The growth inhibition rate and biofilm (BF) formation inhibition rate were calculated based on OD600 and OD570 values measured and in accordance with the expressions used in Test Example 2.

Test [2] has the same test system. The test is described as follows: Growth of test microbe (turbidity OD600), 96-well microplate culture. In kind it is cell-based. As to the method: Pseudomonas PAO1 strain (ATCC 15692) was subjected to stationary culture performed in LB culture medium (Lysogeny Broth; manufactured by Becton Dickinson) at 37° C. for 24 hours. The turbidity (OD600) of the culture solution was measured. The culture solution was diluted with Mueller Hinton Broth (BBL made) to prepare a suspension (15 mL) having a turbidity (OD600) of 1/10^6.
To each of the wells of a 96-well microplate (351172; manufactured by Japan Becton Dickinson), 6 μL of DMSO (Tokyo Chemical Industry Co. Ltd) and an ethanol solution (1 μL, 3 μL or 5 μL) of a test compound were added. After that, the microplate was allowed to stand still at room temperature for 5 hours to evaporate ethanol. The suspension of Pseudomonas microbe prepared in the above step 1) was added in an amount of 145 μL per well and culture was initiated. As the test compound, 2-methylhydroquinone (Sigma Aldrich) and p-toluquinone (Tokyo Kasei) were used. As a reference compound, sodium hypochlorite (manufactured by Wako Pure Chemical Industries Ltd.) was used. As a control, an ethanol solvent (EtOH control) alone was used. The concentration of the test compound in the ethanol solution is 1,000 ppm or 10,000 ppm and the final concentration of the test compound in the culture solution was about from 7 to 333 ppm.
After the 96-well microplate was subjected to stationary culture performed at 30° C. for 24 hours, turbidity (OD600) was measured to check growth. Subsequently, individual wells were stained with 0.1% crystal violet and thoroughly washed twice with physiological saline. To each well, 200 μL of ethanol was added and the absorbance (OD570) was measured to obtain the amount of the biofilm formed.
Compounds listed in Table 3 were each added to a test microbe and culture was conducted by the same procedure as in Test Example 1 and the amount of growth (OD600) and the amount of biofilm formed (OD570) were measured. For compounds a, b, c, f, h, i, J and k, 20 mM ethanol solutions were prepared; whereas for compounds d, e, g, 5 mM ethanol solutions were prepared. The solutions were each added to a 96-well microplate in an amount of 1 to 8 μL and evaluation was made. The final concentrations of the individual compounds are described in Table 3.
as §1
Growth inhibition (%)=(1−(compound addition group OD600/control group OD600))×100
as §2, §3

Where [3] appears, read: Pseudomonas, read-out: BF inhibition (%).
Setting [4] is: Pseudomonas, read-out: Growth inhibition (%).
Setting [5] is: Test Example 3, final concentration 83 ppm.
Where [6] appears, read: Test Example 3, final concentration 165 ppm.
Setting [7] is: Test Example 3, final concentration 331 ppm.
The mark [8] stands for this setting: Test Example 3, final concentration 496 ppm.
Where [9] appears, read: Test Example 3, final concentration 579 ppm.
Setting [10] is: Test Example 3, final concentration 661 ppm.

The term inhibition denotes the relative decrease from the control value, in per cent. Regarding `Cc1c(O)cccc1O` [Compound 6, 2-Methylresorcinol], the inhibition at 83 ppm in test [1] (Pseudomonas, Test Example 3, final concentration 83 ppm, read-out: BF inhibition (%)) was less than 0%; in test [2] (Pseudomonas, Test Example 3, final concentration 83 ppm), less than 0%. For the same molecule, the inhibition at 165 ppm in test [1] (Pseudomonas, Test Example 3, final concentration 165 ppm, read-out: BF inhibition (%)) is less than 0%; in test [2] (Pseudomonas, Test Example 3, final concentration 165 ppm), 5.2%. Besides, the inhibition at 331 ppm in test [1] (Pseudomonas, Test Example 3, final concentration 331 ppm, read-out: BF inhibition (%)) is less than 0%; in test [2] (Pseudomonas, Test Example 3, final concentration 331 ppm), less than 0%. Further, the inhibition at 496 ppm came out at 53% in test [1] (Pseudomonas, Test Example 3, final concentration 496 ppm, read-out: BF inhibition (%)) and 12.3% in test [2] (Pseudomonas, Test Example 3, final concentration 496 ppm). Also, the inhibition at 579 ppm in test [1] (Pseudomonas, Test Example 3, final concentration 579 ppm, read-out: BF inhibition (%)) came out at 52.2%; in test [2] (Pseudomonas, Test Example 3, final concentration 579 ppm), 20%. Moreover, the inhibition at 661 ppm in test [1] (Pseudomonas, Test Example 3, final concentration 661 ppm, read-out: BF inhibition (%)) turned out to be 56.3%; in test [2] (Pseudomonas, Test Example 3, final concentration 661 ppm) it was 13.3%.
Turning to `OCl` [Sodium hypochlorite, sodium hypochlorite, reference compound], the “biofilm formation (in words)” value in test [1] (Test Example 1, 7 to 333 ppm) was “inhibited”. Besides, the “The amount of the biofilm formed OD570” value in test [1] (final concentration 7 ppm, EtOH control 0.9163) worked out at 0.9918; in test [1] (final concentration 20 ppm, EtOH control 0.9564) it was 0.9042; in test [1] (final concentration 33 ppm, EtOH control 0.8974), 0.7879; in test [1] (final concentration 67 ppm, EtOH control 0.8853), 0.7277; in test [1] (final concentration 200 ppm, EtOH control 0.9248), 0.7579; in test [1] (final concentration 333 ppm, EtOH control 0.9562), 0.4967. Also, in test [2] (Test Example 1, 7 to 333 ppm), the “microbial growth (in words)” value is reported as “inhibited”. Moreover, the “Growth OD600” value worked out at 0.5938 in test [2] (final concentration 7 ppm, EtOH control 0.5913); 0.4966 in test [2] (final concentration 20 ppm, EtOH control 0.6346); 0.4445 in test [2] (final concentration 33 ppm, EtOH control 0.668); 0.4585 in test [2] (final concentration 67 ppm, EtOH control 0.628); 0.3016 in test [2] (final concentration 200 ppm, EtOH control 0.6045); 0.2758 in test [2] (final concentration 333 ppm, EtOH control 0.6088).
For `Cc1cc(O)c(C)c(O)c1` [Compound 5, 2,5-Dimethylresorcinol], in test [1] (setting [3]), the inhibition at 92 ppm was less than 0%, the inhibition at 184 ppm amounted to 0.4%, the inhibition at 368 ppm was less than 0% and the inhibition at 552 ppm worked out at 10.4%. Besides, in test [1] (setting [3]), the inhibition at 644 ppm turned out to be 20.4% and the inhibition at 736 ppm came out at 55%. In test [2] (setting [4]), the inhibition at 92 ppm is less than 0%, the inhibition at 184 ppm is less than 0%, the inhibition at 368 ppm was less than 0% and the inhibition at 552 ppm was 9.3%. Further, in test [2] (setting [4]), the inhibition at 644 ppm came out at 14% and the inhibition at 736 ppm worked out at 11.1%.
On to `CC1=CC(=O)C=C(C)C1=O` [i, 3,5-Dimethylbenzoquinone], for which the inhibition at 18 ppm in test [1] (Pseudomonas, final concentration 18 ppm, read-out: BF inhibition (%)) is 17.2%; in test [2] (Pseudomonas, final concentration 18 ppm), 5.3%. For the same molecule, the inhibition at 36 ppm in test [1] (Pseudomonas, final concentration 36 ppm, read-out: BF inhibition (%)) is 26.2%; in test [2] (Pseudomonas, final concentration 36 ppm), less than 0%. The inhibition at 72 ppm is 29.4% in test [1] (Pseudomonas, final concentration 72 ppm, read-out: BF inhibition (%)) and 29.7% in test [2] (Pseudomonas, final concentration 72 ppm). Also, the inhibition at 109 ppm in test [1] (Pseudomonas, final concentration 109 ppm, read-out: BF inhibition (%)) was 54%; in test [2] (Pseudomonas, final concentration 109 ppm), 33.5%. Also, the inhibition at 127 ppm in test [1] (Pseudomonas, final concentration 127 ppm, read-out: BF inhibition (%)) worked out at 60.9%; in test [2] (Pseudomonas, final concentration 127 ppm), 33.7%. For the same molecule, the inhibition at 145 ppm in test [1] (Pseudomonas, final concentration 145 ppm, read-out: BF inhibition (%)) worked out at 55.8%; in test [2] (Pseudomonas, final concentration 145 ppm), 37.7%.
Regarding `Cc1cc(O)cc(O)c1` [Compound 2, 5-Methylresocinol], the “BF inhibition (%)” value in test [1] (setting [5]) is given as “— (No growth inhibition or no BF inhibition)”; in test [1] (setting [6]) it was “— (No growth inhibition or no BF inhibition)”; in test [1] (setting [7]), “— (No growth inhibition or no BF inhibition)”; in test [1] (setting [8]), 57.5%; in test [1] (setting [9]) it was 57.7%; in test [1] (setting [10]), 70.2%. For the same molecule, the “Growth inhibition (%)” value in test [2] (setting [5]) is reported as “— (No growth inhibition or no BF inhibition)”; in test [2] (setting [6]), 10.4%; in test [2] (setting [7]), “— (No growth inhibition or no BF inhibition)”; in test [2] (setting [8]) it was “— (No growth inhibition or no BF inhibition)”; in test [2] (setting [9]) it was 17.6%; in test [2] (setting [10]), “— (No growth inhibition or no BF inhibition)”.
As to `CCCCc1cc(O)ccc1O` [j, 2-Butylhydroquinone], the inhibition at 22 ppm in test [1] (Pseudomonas, final concentration 22 ppm, read-out: BF inhibition (%)) was found to be 16.3%; in test [2] (Pseudomonas, final concentration 22 ppm) it was 8.5%. In addition, the inhibition at 44 ppm in test [1] (Pseudomonas, final concentration 44 ppm, read-out: BF inhibition (%)) is 14.1%; in test [2] (Pseudomonas, final concentration 44 ppm), less than 0%. Also, the inhibition at 89 ppm was found to be 42.1% in test [1] (Pseudomonas, final concentration 89 ppm, read-out: BF inhibition (%)) and 0.8% in test [2] (Pseudomonas, final concentration 89 ppm). Moreover, the inhibition at 133 ppm was 57.3% in test [1] (Pseudomonas, final concentration 133 ppm, read-out: BF inhibition (%)) and less than 0% in test [2] (Pseudomonas, final concentration 133 ppm). For the same molecule, the inhibition at 155 ppm in test [1] (Pseudomonas, final concentration 155 ppm, read-out: BF inhibition (%)) is 63.9%; in test [2] (Pseudomonas, final concentration 155 ppm), less than 0%. The inhibition at 177 ppm in test [1] (Pseudomonas, final concentration 177 ppm, read-out: BF inhibition (%)) is 75.4%; in test [2] (Pseudomonas, final concentration 177 ppm) it was less than 0%.
For `Oc1ccc(O)c(O)c1` [h, Hydroxyhydroquinone], the inhibition at 17 ppm is 78.2% in test [1] (Pseudomonas, final concentration 17 ppm, read-out: BF inhibition (%)) and 46.2% in test [2] (Pseudomonas, final concentration 17 ppm). The inhibition at 34 ppm in test [1] (Pseudomonas, final concentration 34 ppm, read-out: BF inhibition (%)) is 96.2%; in test [2] (Pseudomonas, final concentration 34 ppm) it was 18%. In addition, the inhibition at 67 ppm in test [1] (Pseudomonas, final concentration 67 ppm, read-out: BF inhibition (%)) amounted to 96.1%; in test [2] (Pseudomonas, final concentration 67 ppm), 7.2%. The inhibition at 101 ppm in test [1] (Pseudomonas, final concentration 101 ppm, read-out: BF inhibition (%)) came out at 96.3%; in test [2] (Pseudomonas, final concentration 101 ppm), 1.7%. The inhibition at 118 ppm in test [1] (Pseudomonas, final concentration 118 ppm, read-out: BF inhibition (%)) is 96.3%; in test [2] (Pseudomonas, final concentration 118 ppm), 2%. The inhibition at 134 ppm in test [1] (Pseudomonas, final concentration 134 ppm, read-out: BF inhibition (%)) came out at 96.4%; in test [2] (Pseudomonas, final concentration 134 ppm), 5.4%.
